Article PMC12040169 (PLOS Biology, 2025)

Experiment: in vitro
Settings: human, hela cells, % viability

SMILES | viability at 28.5 h, 10 µM
O=C(c1cnccn1)N1CCN(CCc2ccccc2)CC1 [CBK200224] | 101%
O=C(c1csnn1)N1CCN(CCc2ccccc2)CC1 [CBK200228] | 96.6%
CCOc1ccsc1C(=O)N1CCN(CCc2ccccc2)CC1 [CBK200229] | 91.5%
O=C(c1cscn1)N1CCN(CCc2ccccc2)CC1 [CBK200230] | 106%
C[C@@H]1CN(C(=O)c2cn(C)c3ccccc23)C[C@H](C)O1 [CBK200235] | 88.9%
O=C(NC1CCCC1)c1ccnc2ccccc12 [CBK200237] | 92.6%
Cc1cc(C(=O)NC2CCCC2)n[nH]1 [CBK200240] | 94.2%
O=C(OCCN1CCOCC1)N1CCN(c2ccccc2)CC1 [CBK200242] | 90.3%
CCN1CCN(C(=O)c2c[nH]c3ccccc23)CC1 [CBK200245] | 103%
CCN1CCN(C(=O)c2cccc3[nH]ccc23)CC1 [CBK200246] | 110%
CCOc1ccsc1C(=O)N1CCN(CC)CC1 [CBK200250] | 125%
CCN1CCN(C(=O)c2c(-c3ccccc3)noc2C)CC1 [CBK200251] | 96.5%
CCN1CCN(C(=O)Cc2ccc(N(C)C)cc2)CC1 [CBK200253] | 82.2%
O=C(NC1Cc2ccccc2C1)c1cncnc1 [CBK200262] | 119%
O=C(c1cnc2ccccc2n1)N1CCC(F)CC1 [CBK200264] | 93.4%
CN1CCN(c2ccc(C(=O)N3CCC(F)CC3)cc2)CC1 [CBK200265] | 109%
Cc1cc2ncn(CC(=O)N3CCC(F)CC3)c2cc1C [CBK200266] | 104%
O=C(c1cncnc1)N1CCc2ccccc21 [CBK200272] | 102%
O=C(Cc1c[nH]c2ccccc12)N1CCC(F)CC1 [CBK200274] | 118%
O=C(CCc1cccnc1)N1CCC(F)CC1 [CBK200275] | 103%
Cc1cc(C(=O)N2CCC(F)CC2)n[nH]1 [CBK200277] | 109%

SMILES | viability at 28.5 h, 10 µM
O=C(c1cccnc1)N1CCc2ccccc21 [CBK200279] | 121%
O=C(c1ccnc2ccccc12)N1CCc2ccccc21 [CBK200283] | 103%
O=C(c1ccc[nH]1)N1CCc2ccccc21 [CBK200285] | 72.6%
CN1CCN(CCOC(=O)N2CCSCC2)CC1 [CBK200288] | 94.7%
Cc1ccc(C(=O)Nc2ccc(C)nc2C)cn1 [CBK200289] | 89.6%
Cc1ccc(NC(=O)c2cnc3ccccc3c2)c(C)n1 [CBK200290] | 99.1%
Cc1ccc(NC(=O)Cc2ccc(N(C)C)cc2)c(C)n1 [CBK200295] | 104%
Cc1ccc(NC(=O)c2nc3ccccc3[nH]2)c(C)n1 [CBK200296] | 94.4%
Cc1noc(C)c1NC(=O)c1ccccn1 [CBK200299] | 95.6%
COc1ccc(C(=O)Nc2c(C)noc2C)c(OC)n1 [CBK200300] | 104%
Cc1noc(C)c1NC(=O)c1n[nH]c2ccccc12 [CBK200301] | 104%
Cc1noc(C)c1NC(=O)c1cccn1C [CBK200304] | 101%
Cc1noc(C)c1NC(=O)c1c(C)noc1C [CBK200305] | 96.4%
Cc1noc(C)c1NC(=O)c1cnccc1C(F)(F)F [CBK200306] | 99.1%
COc1ncccc1C(=O)Nc1c(C)noc1C [CBK200307] | 103%
Cc1noc(C)c1NC(=O)c1ccc2ncccc2c1 [CBK200308] | 104%
Cc1noc(C)c1NC(=O)c1nccc2ccccc12 [CBK200310] | 93.3%
Cc1noc(C)c1NC(=O)c1cc2ccccc2n1C [CBK200311] | 108%
Cc1noc(C)c1NC(=O)c1cn(C)c2ccccc12 [CBK200312] | 87.3%
Cc1nc(C)c(C(=O)Nc2c(C)noc2C)s1 [CBK200313] | 105%
